Data on four compounds can be found in patent US11191855B2, “1,7-diaryl-1,6-heptadiene-3,5-dione derivatives, methods for the production and use thereof” (UNIVERSITÄTSKLINIKUM REGENSBURG, priority 2015, dated 2021).

A value given as a limit tells only on which side of the number the result lay.

Data set [1] deals with S. aureus ATCC 25923. The data set can be described thus: Comparative Example 3: phototoxicity by methods c.1) and c.2). Format: cell-based, Staphylococcus aureus. The conditions noted are these: either of the methods c.1) and c.2). As to the method: (§1) A 2-hour culture was divided into 1800 μL aliquots. After centrifuging at 20° C., 830 rcf, 5 min (5417R centrifuge, Eppendorf, Hamburg, Germany), the pellets were re-suspended in phosphate buffer (Dulbeccos' Modified Phosphate Saline, DPBS, Sigma-Aldrich) with either 10 or 50 μM of the corresponding photosensitizer, wherein the final volume was kept at 1800 μL.
(§2) The irradiation was carried out under constant shaking (MTS4, IKA, Staufen, Germany, 175 rpm) from below on a LED array with maximum homogeneity of the lighting surface. All of the controls were shaken in the same manner. The technical data for the light source are shown in Table 2; the total dose of light applied was 33.8 J/cm^2.
(§3) The determination of the colony forming units (CFU) was carried out in accordance with the method published by Miles and Misra (Miles, A A; Misra, S S, Irwin, J O (1938 Nov.). “The estimation of the bactericidal power of the blood” The Journal of hygiene 38 (6): 732-49). In this regard, serial dilutions (1:10) of the corresponding bacterial suspension were produced in DPBS. 5×10 μL of each bacterial dilution was then dripped onto Todd-Hewitt plates (with broth, additional 1.5% agar (Agar-Agar, Kobe I, Roth, Karlsruhe, Germany) and incubated at 37° C. for 24 h. Next, the number of surviving colony forming units was determined. All of the tests were carried out four times. […]

Data set [2] concerns E. coli ATCC 25922. Described as above. Type of data set: cell-based, Escherichia coli. The conditions noted are these: either of the methods c.1) and c.2). The protocol:
as §1, §2, §3

A short description of data set [3]: Comparative Example 3: stability and molar extinction coefficient in aqueous solution. Format: physicochemical. The conditions noted are these: comparable with natural curcumin. The protocol:
In a further test, the stability and phototoxicity of the following compounds were tested.
Incubation with the compound (71) (SACUR-01d) and the bacterial strains S. aureus ATCC 25923 and E. coli ATCC 25922 employed as well as irradiation with electromagnetic radiation and determination of the phototoxicity were carried out as described in sections c.1) and c.2) above. […] The free OH groups contribute greatly to this photo-instability because due to them, the compound can readily transform into the quinoid mesomer, and thus cleavage of one half of the molecule with the formation of ferulic acids or substituted vanillins is facilitated.
Aqueous solution A: distilled water.
Aqueous solution B: isotonic sodium chloride solution (0.9% by weight NaCl).
Aqueous solution C: PBS buffer, pH 7.4 (composition: see Sambrook, J.; Maniatis, T.; Russel, D. W.: Molecular cloning: a laboratory manual. Cold Spring Harbor Laboratory Press; 3rd edition (2001)).

For data set [4], the system named is E. coli ATCC 25922. Put plainly: Phototoxicity test c.2) (BlueV light source, emission maximum approx. 420 nm, CFU count). Format: cell-based, Escherichia coli. As to conditions: light dose 15.7 J/cm^2, approx. 420 nm, 15 min at 17.5 mW/cm^2, vs reference control. As to the method: A sample of the bacterial cell Staphylococcus. aureus (ATCC number: 25923) or Escherichia. coli (ATCC number: 25922) was removed from a cryo-freeze culture and cultured under aerobic conditions at 37° C. and 175 rpm overnight in an orbital shaker (MAXQ4000, Thermo Scientific, Dubuque, Iowa, USA). Growth was carried out in 20 mL Todd-Hewitt broth (Carl Roth, Karlsruhe, Germany) supplemented with 0.3% of yeast extract (AppliChem, Darmstadt, Germany).
In a second experiment, the photosensitizers (PS) used were dissolved in Millipore water and adjusted to various concentrations. 25 μL of a bacterial suspension grown overnight (˜108/mL) was incubated with 25 μL of photosensitizer solution of the various concentrations at room temperature for 10 seconds in darkness in a 96-well plate.
Next, the suspension was irradiated for 5-20 minutes. For the irradiation, the light source BlueV from Waldmann (Villingen-Schwenningen, Germany) was used, which emits light from 380 to 480 nm (emission maximum at approximately 420 nm). The applied energy density was 17.5 mW/cm^2.
Each experiment was accompanied by three controls in order to exclude side effect of the irradiation/photosensitizer (PS) on the survival of the bacteria: (i) no PS, only light (=light control), (ii) no light, only PS (=dark control) and (iii) neither light nor PS (=reference control). The determination of the colony forming units (CFU) per mL was also carried out in accordance with the method published by Miles, Misra and Irwin described above in section c.1). All of the tests were carried out four times.
The photosensitizers (PS) SACUR-01a, SACUR-03 and SACUR-07 were tested against the bacterial strains S. aureus ATCC 25923 and E. coli ATCC 25922 (FIGS. 21-23). All of the remaining PS were tested against S. aureus ATCC 25923 (FIGS. 24-33). FIGS. 21-33 show the logarithmic reduction after illumination with respect to the reference control.
The average reference control (arithmetic mean with standard deviation) (no light, no PS) was 3.6×10^8/mL for E. coli. The logarithmic reduction after illumination is shown with respect to the reference control.

In data set [5] the test system is S. aureus ATCC 25923. Described as above. Type of data set: cell-based, Staphylococcus aureus. As to conditions: Staphylococcus aureus, ATCC25923, light or radiation study, 5 min, irradiation 5 minutes, approx. 420 nm, 17.5 mW/cm^2, 5.3 J/cm^2, vs reference control. As to the method: A sample of the bacterial cell Staphylococcus. aureus (ATCC number: 25923) or Escherichia. coli (ATCC number: 25922) was removed from a cryo-freeze culture and cultured under aerobic conditions at 37° C. and 175 rpm overnight in an orbital shaker (MAXQ4000, Thermo Scientific, Dubuque, Iowa, USA). Growth was carried out in 20 mL Todd-Hewitt broth (Carl Roth, Karlsruhe, Germany) supplemented with 0.3% of yeast extract (AppliChem, Darmstadt, Germany). In a second experiment, the photosensitizers (PS) used were dissolved in Millipore water and adjusted to various concentrations. 25 μL of a bacterial suspension grown overnight ( 108/mL) was incubated with 25 μL of photosensitizer solution of the various concentrations at room temperature for 10 seconds in darkness in a 96-well plate. Next, the suspension was irradiated for 5-20 minutes. For the irradiation, the light source BlueV from […], Germany) was used, which emits light from 380 to 480 nm (emission maximum at approximately 420 nm). The applied energy density was 17.5 mW/cm^2. Each experiment was accompanied by three controls in order to exclude side effect of the irradiation/photosensitizer (PS) on the survival of the bacteria: (i) no PS, only light (=light control), (ii) no light, only PS (=dark control) and (iii) neither light nor PS (=reference control). […] All of the tests were carried out four times. […] All of the remaining PS were tested against S. aureus ATCC 25923 (FIGS. 24-33). FIGS. 21-33 show the logarithmic reduction after illumination with respect to the reference control. […] The irradiation period was 5 minutes (emission maximum at approximately 420 nm) for an applied intensity of 17.5 mW/cm^2, i.e. an applied light energy (dosage) of 5.3 J/cm^2. The average reference control (arithmetic mean with standard deviation) (no light, no PS) was 3.9×10^8/mL. The logarithmic reduction after illumination is shown with respect to the reference control.

For data set [6] the following is noted: natural curcumin, background statement; cited from earlier work.

`CN(C)c1ccc(/C=C/C2=CC(=C/C=C3C=CC(=[N+](C)C)C=C3)/O[B-](F)(F)O2)cc1` [CRANAD-2, reference compound]: in the data set on S. aureus ATCC 25923 [1], the “Inactivation of S. aureus ATCC 25923 upon illumination in the presence of the compound” value was “could not be ascertained”. In addition, the “Inactivation of E. coli ATCC 25922 upon illumination in the presence of the compound” value in the data set with E. coli ATCC 25922 [2] is on record as “could not be ascertained”.
As for `Cl.Cl.NCCOc1ccc(/C=C/C(=O)CC(=O)/C=C/c2ccc(OCCN)c(O)c2)cc1O` [Curcumin 01d hydrochloride], in the data set with S. aureus ATCC 25923 [1], the “Inactivation of S. aureus ATCC 25923 upon illumination in the presence of the compound” value was “Hardly any inactivation”. Moreover, the “Stability in aqueous solution” value in data set [3] is listed as “low stability”. The “Inactivation of E. coli ATCC 25922 upon illumination in the presence of the compound” value with E. coli ATCC 25922 [2] is given as “Hardly any inactivation”.
Regarding `CCCCCCCCOc1ccc(/C=C/C(=O)CC(=O)/C=C/c2ccc(OCCCCCCCC)c(OCCN)c2)cc1OCCN.Cl` [Curcumin 07 hydrochloride], the “Effectiveness against E. Coli: Reduction in CFU in log10 at concentration of 10 μM” value in the data set with E. coli ATCC 25922 [4] (10 μM) is >1 log10. Moreover, the “Effectiveness against E. Coli: Reduction in CFU in log10 at concentration of 50 μM” value with E. coli ATCC 25922 [4] (50 μM) is given as >4 log10. Moreover, the log reduction at 10 µM with S. aureus ATCC 25923 [5] (10 μM, read-out: Effectiveness against S. aureus: Reduction in CFU in log10 at concentration of 10 μM) is > 2. Further, the log reduction at 50 µM with S. aureus ATCC 25923 [5] (50 μM, read-out: Effectiveness against S. aureus: Reduction in CFU in log10 at concentration of 50 μM) is > 5.
On to `COc1cc(C=CC(=O)CC(=O)C=Cc2ccc(O)c(OC)c2)ccc1O` [curcumin, 1,7-bis-(4-hydroxy-3-methoxyphenyl)-1,6-heptadiene-3,5-dione], for which the Solubility in water entry in data set [6] is “low solubility in water”.
